Measurements as given in US20090105562A1, “SYSTEM AND METHODS FOR SCREENING OR ANALYZING TARGETS” (TAIPEI VETERANS GENERAL HOSPITAL, priority 2007, published 2009).

How the values were obtained:
[1] = tested on: c-FLIP; experiment: Protein levels of c-FLIP and pro-caspases in fluoxetine-treated NSCs (Western, immunostaining); type: cell-based, rat
Procedure: (§1) All animal used were treated in accordance with the Animal Care and Use Committee guideline at Taipei Veterans General Hospital. Adult Sprague-Dawley rats (8 weeks old, 250 g) were anesthetized with intraperitoneal phenobarbital (Sigma, USA). The location of their brains was mapped: then, the brain was surgically separated from the hippocampus region with the procedure. Tissues from the hippocampus of the adult SD rats were dissociated and incubated in Hank's balanced salt solution (HBSS) containing collagenase (78 units/ml) and hyaluronidase (38 units/ml) for 10 mins at 37° C. The tissues were then mechanically dissected and placed in a trypsin solution (1.33 mg/ml) at 37° C. for another 10 mins. Dissociated cells were then centrifuged at 150 g for 5 mins. The enzyme solution was then removed and replaced with serum-free culture media composed of Dulbecco modified Eagle medium (DMEM) and F-12 nutrient (1:1) including insulin (25 μg/mL), transferrin (100 μg/mL), progesterone (20 nM), putrescine (60 μM), sodium selenite (30 nM), and human recoFLinant epidermal growth factor (EGF) 20 ng/mL and fibroblast growth factor-basic (bFGF) 20 ng/mL (R&D Systems, Minneapolis, Minn.). Viable cells were counted by trypan blue exclusion and plated as 5000 cells/200 μL per well in 96-well plates (Corning, Acton, Mass.) with no substrate pretreatment.
The pGL3-FLIP was obtained from based on T. Bartke et al., Oncogene 20 (2001) 571-580. The c-FLIP promoter deletion constructs pGL3-FLIP978, pGL3-FLIP696, pGL3-FLIP414 and pGL3-FLIP132 were generated by PCR amplification of corresponding DNA sequences from pGL3-FLIP using the following forward primers 5′-[…] […]
An avidin-biotin complex method was used for the immunohistochemical staining in the differentiated NSCs. […] Immunoreactive signals were detected with a mixture of biotinylated rabbit antimouse IgG and Fluoesave (Calbiochem, La Jolla, Calif., USA) under immunofluorescent microscope (Olympus FV300).

[2] = tested on: c-FLIP promoter; experiment: c-FLIP promoter luciferase assay in fluoxetine-treated NSCs; type: cell-based, rat; details: fluoxetine 20 μm
Procedure: as §1, with “pretreatment. […]” for “pretreatment.”

[3] = tested on: c-FLIP; experiment: c-FLIP mRNA expression in fluoxetine-treated NSCs (real-time RT-PCR); type: cell-based, rat; details: FL-treated NSCs
Procedure: as §1, with “The enzyme solution was then removed and replaced with serum-free culture media composed of Dulbecco modified Eagle medium (DMEM) and F-12 nutrient (1:1) including insulin (25 μg/mL), transferrin (100 μg/mL), progesterone (20 nM), putrescine (60 μM), sodium selenite (30 nM), and human recoFLinant epidermal growth factor (EGF) 20 ng/mL and fibroblast growth factor-basic (bFGF) 20 ng/mL (R&D Systems, Minneapolis, Minn.).” left out
For real-time RT-PCR, the total RNA was extracted using the RNAeasy kit (Qiagen, Valencia, Calif., USA) as previously described C. […] The quantification in the unknown samples was performed by the LightCycler Relative Quantification Software version 3.3 (Roche Molecular Systems, Alameda, Calif., USA). […]

[4] = Bile duct microdialysis with HPLC-UV of unbound cefoperazone in rat bile; type: in vivo; details: male, Sprague-Dawley, bile microdialysate (bile duct), 360 min following cefoperazone intravenous administration (30 mg/kg), read-out: cefoperazone concentration in microdialysate from rat biliary duct
Procedure: Adult, male Sprague-Dawley rats (280-350 g) were obtained from the Laboratory Animal Center at National Yang-Ming University (Taipei, Taiwan). These animals were specifically pathogen-free and were allowed to acclimate to their environmentally controlled quarters (24±1° C. and 12:12 h light-dark cycle) for at least 5 days before the experiments began. At the start of experiments, the rats were anesthetized with urethane 0.8 g/ml and chloralose 0.08 g/ml ([…], i.p.). Throughout the experimental period, anesthesia was maintained by administering one quarter of the initial dose at each hour. The experimental animals were kept warm with a heating pad throughout the experiments.
The HPLC system consisted of a chromatographic pump (BAS PM-80, Bioanalytical System, West Lafayette, Ind., USA), an on-line injector (CMA/160, Stockholm, Sweden) equipped with a 20 μl sample loop and a UV detector (Soma S-3702, Tokyo, Japan). […] Output signal from the HPLC-UV was recorded using an EZChrom chromatographic data system (Scientific Software, San Ramon, Calif., USA). […]
For in vivo recovery, normal saline solution containing cefoperazone (50 or 100 μg/ml) were pumped through the probes at a constant flow rate (2 μl/min) using the infusion pump (CMA/100). After a stabilization period of 2 h, the inlet (C^in) and outlet (C^out) concentrations of cefoperazone were determined by HPLC. […]

[5] = different concentrations of fluoxetine treatment

Row | c-FLIP promoter (−414 to −133 bp) region activity [2] | SMILES | protein expression of c-FLIP ([1]; FL-treated NSCs) | protein level of inactive caspase 3 (pro-form) [1, 5] | protein level of inactive caspase 8 (pro-form) [1, 5] | mRNA expression of c-FLIP [3] | concentration at 360 min [4] [ng/mL]
1 | Activates | CNCCC(Oc1ccc(C(F)(F)F)cc1)c1ccccc1 (stereo not drawn) [FL, fluoxetine] | up-regulated | not decreased | not decreased | up-regulated | –
2 | – | CCN1CCN(C(=O)N[C@@H](C(=O)N[C@@H]2C(=O)N3C(C(=O)O)=C(CSc4nnnn4C)CS[C@H]23)c2ccc(O)cc2)C(=O)C1=O [cefoperazone] | – | – | – | – | 27800
